pIC50: −log10 of the molar value.

The test system of test [1] is AGS. Briefly: Cytotoxic activity against human AGS cells assessed as reduction in cell viability incubated for 48 hrs by MTT assay. Type of test: cell-based. On the technique in general: Tetrazolium dyes change colour on reduction, which living cells bring about.
Test [2] has as its system Mus musculus. Briefly: Gastroprotective activity in Swiss albino mouse model of HCl/EtOH-induced lesion assessed as inhibition of gastric lesions at 50 mg/kg, po dosed 50 mins before HCl/EtOH challenge and measured 1 hr post HCl/EtOH challenge. The note with it: Stomach. Type of test: functional.
A short description of test [3]: Cytotoxic activity against human fibroblasts assessed as reduction in cell viability incubated for 48 hrs by MTT assay. Format: cell-based. The conditions noted are these: Fibroblast.
Test [4] concerns Mus musculus. Briefly: Gastroprotective activity in Swiss albino mouse model of HCl/EtOH-induced lesion assessed as inhibition of gastric lesions at 20 mg/kg, po dosed 50 mins before HCl/EtOH challenge and measured 1 hr post HCl/EtOH challenge. Format: functional. The note with it: Stomach.
The test system of test [5] is Mus musculus. In words: Gastroprotective activity in Swiss albino mouse model of HCl/EtOH-induced lesion assessed as gastric lesion index at 100 mg/kg, po dosed 50 mins before HCl/EtOH challenge and measured 1 hr post HCl/EtOH challenge (reference value: 42 +/- 1.9 mm). Format: functional, Stomach.
Test [6] deals with Mus musculus. Briefly: Gastroprotective activity in Swiss albino mouse model of HCl/EtOH-induced lesion assessed as inhibition of gastric lesions at 12.5 to 100 mg/kg, po dosed 50 mins before HCl/EtOH challenge and measured 1 hr post HCl/EtOH challenge. Type of test: functional. The conditions noted are these: Stomach.
For test [7], the system named is Mus musculus. In words: Gastroprotective activity in Swiss albino mouse model of HCl/EtOH-induced lesion assessed as inhibition of gastric lesions at 100 mg/kg, po dosed 50 mins before HCl/EtOH challenge and measured 1 hr post HCl/EtOH challenge. Type of test: functional. The conditions noted are these: Stomach.
For test [8], the system named is Mus musculus. Briefly: Gastroprotective activity in Swiss albino mouse model of HCl/EtOH-induced lesion pre-treated with 10 mg/kg prostaglandin synthesis inhibitor indomethacin assessed as gastric lesion index at 50 mg/kg, po dosed 50 mins before HCl/EtOH challenge and measured 1 hr post HCl/EtOH challenge (reference value: 12.1 +/- 2.5 mm). Type of test: functional, Stomach.

The subject of test [9] is Mus musculus. Briefly: Gastroprotective activity in Swiss albino mouse model of HCl/EtOH-induced lesion pre-treated with 3.5 mg/kg vanilloid receptor antagonist ruthenium red assessed as gastric lesion index at 50 mg/kg, po dosed 50 mins before HCl/EtOH challenge and measured 1 hr post HCl/EtOH challenge (reference value: 12.1 +/- 2.5 mm). Type of test: functional, Stomach.

In test [10] the test system is Mus musculus. Briefly: Gastroprotective activity in Swiss albino mouse model of HCl/EtOH-induced lesion pre-treated with 70 mg/kg NO synthase inhibitor L-NAME assessed as gastric lesion index at 50 mg/kg, po dosed 50 mins before HCl/EtOH challenge and measured 1 hr post HCl/EtOH challenge (reference value: 12.1 +/- 2.5 mm). Format: functional, Stomach.
The test system of test [11] is Mus musculus. Briefly: Gastroprotective activity in Swiss albino mouse model of HCl/EtOH-induced lesion pre-treated with 10 mg/kg sulfhydryl inhibitor NEM assessed as gastric lesion index at 50 mg/kg, po dosed 50 mins before HCl/EtOH challenge and measured 1 hr post HCl/EtOH challenge (reference value: 12.1 +/- 2.5 mm). Type of test: functional, Stomach.
For test [12], the system named is Mus musculus. Briefly: Gastroprotective activity in Swiss albino mouse model of HCl/EtOH-induced lesion assessed as gastric lesion index at 50 mg/kg, po dosed 50 mins before HCl/EtOH challenge and measured 1 hr post HCl/EtOH challenge (reference value: 42 +/- 1.9 mm). Type of test: functional, Stomach.
The test system of test [13] is Mus musculus. Briefly: Gastroprotective activity in Swiss albino mouse model of HCl/EtOH-induced lesion assessed as gastric lesion index at 70 mg/kg, po dosed 50 mins before HCl/EtOH challenge and measured 1 hr post HCl/EtOH challenge (reference value: 42 +/- 1.9 mm). Type of test: functional, Stomach.
Test [14] concerns Mus musculus. Briefly: Gastroprotective activity in Swiss albino mouse model of HCl/EtOH-induced lesion assessed as gastric lesion index at 10 mg/kg, po dosed 50 mins before HCl/EtOH challenge and measured 1 hr post HCl/EtOH challenge (reference value: 42 +/- 1.9 mm). Format: functional, Stomach.

One may read the pIC50 as −log10 of the IC50, conventionally taken in molar units. As usually defined, the inhibition in vivo is how much of the control response was suppressed. Consider `CCCCCCCCCCCCCCCC(=O)OC[C@@]1(C)CCC[C@]2(C)[C@@H]1CC[C@@]13C=C[C@@](C)(CC[C@H]12)C3`, for which the pIC50 in test [1] is 4.19; in test [3], 4.06. For the same molecule, the inhibition in vivo at 50 mg/kg in [2] is 46%.
The corresponding values for `CCCCCCCCCCCCCC(=O)OC[C@@]1(C)CCC[C@]2(C)[C@@H]1CC[C@@]13C=C[C@@](C)(CC[C@H]12)C3` are 4.42, 4.21 and 46%.
For the molecule `CCCCCCCCCC(=O)OC[C@@]1(C)CCC[C@]2(C)[C@@H]1CC[C@@]13C=C[C@@](C)(CC[C@H]12)C3`, the negative-log IC50 (pIC50) in [1] was 4.68; in test [3], 4.48. In addition, the inhibition in vivo at 50 mg/kg in [2] amounted to 52%.
Take `Cc1c(OCC(F)(F)F)ccnc1C[S+]([O-])c1nc2ccccc2[nH]1` (stereo not given) [LANSOPRAZOLE]: the inhibition in vivo at 20 mg/kg in test [4] amounted to 57%. Besides, the pIC50 in test [1] was 3.83; in test [3] it was 3.54. In addition, the inhibition in vivo at 50 mg/kg in [2] was found to be 65%.
Turning to `CC1(C)[C@@H](OC(=O)CCC(=O)O)CC[C@]2(C)[C@H]3C(=O)C=C4[C@@H]5C[C@@](C)(C(=O)O)CC[C@]5(C)CC[C@@]4(C)[C@]3(C)CC[C@@H]12` [CARBENOXOLONE], the Activity in test [5] worked out at 13.1 mm.
With `C[C@]12C=C[C@@]3(CC[C@@H]4[C@@](C)(COC(=O)/C=C/c5ccc(Cl)cc5)CCC[C@@]4(C)[C@@H]3CC1)C2`, the negative-log IC50 (pIC50) is 4.74 in [1] and 4.54 in test [3]. Also, in [2], the inhibition in vivo at 50 mg/kg came out at 42%.
Usually ED50 stands for the dose that gives a 50% effect, or the effect in half of the subjects. Regarding `C[C@]12C=C[C@@]3(CC[C@@H]4[C@@](C)(CO)CCC[C@@]4(C)[C@@H]3CC1)C2`, the pIC50 in test [1] was 4.72. Besides, in test [6], the ED50 was 50 mg/kg and the inhibition result is “Dose-dependent effect”. Besides, in test [2], the inhibition in vivo at 50 mg/kg is 53%. In test [7], the inhibition in vivo at 100 mg/kg stood at 79%. Moreover, the pIC50 in test [3] was 4.51.
Take `COc1ccc(/C=C/C(=O)OC[C@@]2(C)CCC[C@]3(C)[C@@H]2CC[C@@]24C=C[C@@](C)(CC[C@H]23)C4)cc1`: the negative-log IC50 (pIC50) was 3.64 in test [1] and 3.42 in test [3]. In addition, the inhibition in vivo at 50 mg/kg in test [2] was 11%.
With `C[C@]12C=C[C@@]3(CC[C@@H]4[C@@](C)(COC(=O)/C=C/c5ccc(F)cc5)CCC[C@@]4(C)[C@@H]3CC1)C2`, the pIC50 in test [1] was 4.24; in test [3], 4.16. Further, the inhibition in vivo at 50 mg/kg in [2] stood at 24%.
Turning to `C[C@]12C=C[C@@]3(CC[C@@H]4[C@@](C)(COC(=O)/C=C/c5cccc(Cl)c5)CCC[C@@]4(C)[C@@H]3CC1)C2`, the Activity was found to be 38.9 mm in [8]; 17 mm in test [9]; 13.1 mm in test [10]; 15.2 mm in test [11]; 12.1 mm in test [12]. Further, the pIC50 in [1] was 4.92; in test [3] it was 4.82. The inhibition in vivo at 50 mg/kg in [2] stood at 77%.
Regarding `COC(=O)[C@@H](N)CCCNC(=N)N[N+](=O)[O-]` [L-NAME], the Activity in test [13] was 42.7 mm.
For `C[C@]12C=C[C@@]3(CC[C@@H]4[C@@](C)(COC(=O)/C=C/c5ccc([N+](=O)[O-])cc5)CCC[C@@]4(C)[C@@H]3CC1)C2`, the negative-log IC50 (pIC50) is 4.46 in test [1] and 4.21 in [3]. The inhibition in vivo at 50 mg/kg in test [2] is 0%.
Take `COc1ccc2c(c1)c(CC(=O)O)c(C)n2C(=O)c1ccc(Cl)cc1` [INDOMETHACIN]: in test [14], the Activity is on record as 39.9 mm.
Regarding `Cc1ccc(/C=C/C(=O)OC[C@@]2(C)CCC[C@]3(C)[C@@H]2CC[C@@]24C=C[C@@](C)(CC[C@H]23)C4)cc1`, the pIC50 in [1] was 4.41; in test [3], 4.31. For the same molecule, the inhibition in vivo at 50 mg/kg in test [2] was determined as 8%.
Turning to `CCCCCCCCCCCC(=O)OC[C@@]1(C)CCC[C@]2(C)[C@@H]1CC[C@@]13C=C[C@@](C)(CC[C@H]12)C3`, the pIC50 in test [1] is 4.48; in test [3], 4.28. Besides, the inhibition in vivo at 50 mg/kg in test [2] is 51%.
As for `COc1ccccc1/C=C/C(=O)OC[C@@]1(C)CCC[C@]2(C)[C@@H]1CC[C@@]13C=C[C@@](C)(CC[C@H]12)C3`, the pIC50 was 3.82 in [1] and 3.51 in [3]. Moreover, in test [2], the inhibition in vivo at 50 mg/kg amounted to 7%.
With `CCCCCCCCCCCCCCCCCC(=O)OC[C@@]1(C)CCC[C@]2(C)[C@@H]1CC[C@@]13C=C[C@@](C)(CC[C@H]12)C3`, the pIC50 is 3.64 in test [1] and 3.44 in test [3]. For the same molecule, the inhibition in vivo at 50 mg/kg in [2] worked out at 44%.
As to `CCCCCCCCCCCCCCCCCCCC(=O)OC[C@@]1(C)CCC[C@]2(C)[C@@H]1CC[C@@]13C=C[C@@](C)(CC[C@H]12)C3`, the pIC50 is 3.49 in [1] and 3.24 in [3]. In addition, the inhibition in vivo at 50 mg/kg in test [2] was 34%.
As for `CCN1C(=O)C=CC1=O` [N-ETHYLMALEIMIDE], the Activity in [14] was 41.9 mm.
Consider `C[C@]12C=C[C@@]3(CC[C@@H]4[C@@](C)(COC(=O)/C=C/c5cccc([N+](=O)[O-])c5)CCC[C@@]4(C)[C@@H]3CC1)C2`, for which the pIC50 in [1] was 4.54; in test [3], 4.36. Further, the inhibition in vivo at 50 mg/kg in [2] was found to be 2%.
Regarding `C[C@]12C=C[C@@]3(CC[C@@H]4[C@@](C)(COC(=O)/C=C/c5ccccc5[N+](=O)[O-])CCC[C@@]4(C)[C@@H]3CC1)C2`, the figures for the pIC50 in [1] and in test [3] were 4.60 and 4.42, respectively. Further, the inhibition in vivo at 50 mg/kg in [2] worked out at 14%.
As for `COc1cccc(/C=C/C(=O)OC[C@@]2(C)CCC[C@]3(C)[C@@H]2CC[C@@]24C=C[C@@](C)(CC[C@H]23)C4)c1`, the values for the pIC50 in test [1] and in [3] were 3.78 and 3.54, respectively. Also, the inhibition in vivo at 50 mg/kg in [2] is 4%.
For the molecule `C[C@]12C=C[C@@]3(CC[C@@H]4[C@@](C)(COC(=O)/C=C/c5ccccc5)CCC[C@@]4(C)[C@@H]3CC1)C2`, the pIC50 was 4.52 in [1] and 4.35 in test [3]. In addition, the inhibition in vivo at 50 mg/kg in test [2] was 68%.

Source of the values: ChEMBL document CHEMBL3588852, “Gastroprotective activity of ent-beyerene derivatives in mice: Effects on gastric secretion, endogenous prostaglandins and non-protein sulfhydryls” (Bioorg Med Chem Lett, 2015).
